Each molecule was assayed against Thymidine phosphorylase (Escherichia coli O45:K1 (strain S88 / ExPEC), UniProt B7MNI9) (assay: Thymidine Phosphorylase Assay). Details: pH 7.4; 25 °C.
Sequence of Thymidine phosphorylase (B7MNI9 whole entry): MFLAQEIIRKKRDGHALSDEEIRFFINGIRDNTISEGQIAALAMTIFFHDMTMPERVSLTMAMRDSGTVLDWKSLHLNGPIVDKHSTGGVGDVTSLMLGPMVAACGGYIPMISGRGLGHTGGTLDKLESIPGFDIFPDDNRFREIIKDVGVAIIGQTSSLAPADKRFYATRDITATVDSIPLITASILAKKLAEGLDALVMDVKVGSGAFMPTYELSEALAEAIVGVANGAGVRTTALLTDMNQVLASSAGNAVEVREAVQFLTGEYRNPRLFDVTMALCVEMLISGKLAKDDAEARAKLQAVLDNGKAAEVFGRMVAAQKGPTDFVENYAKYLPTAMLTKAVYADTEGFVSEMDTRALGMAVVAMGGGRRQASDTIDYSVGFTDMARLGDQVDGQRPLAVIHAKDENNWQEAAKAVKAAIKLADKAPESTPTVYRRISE
Method: The Thymidine phosphorylase/PD-ECGF (E. coli) activity was determined by measuring the absorbance at 290 nm spectrophotometrically. In brief, total reaction mixture of 200 uL contained 145 uL of potassium phosphate buffer (pH 7.4), 30 uL of enzyme (E. coli) at concentration 0.05 and 0.002 U, respectively, were incubated with 5 uL of test materials for 10 min at 25 °C in microplate reader. After incubation, preread at 290 nm was taken to deduce the absorbance of substrate particles. Substrate (20 uL, 1.5 mM), was dissolved in potassium phosphate buffer, was immediately added to plate and continuously read after 10, 20, and 30 min in microplate reader (spectra max, molecular devices, CA, USA). All assays were performed in triplicate.
`O=c1[nH]c(=O)c2cc[nH]c2[nH]1` [1,7-Dihydro-pyrrolo[2,3-d]pyrimidine-2,4-dione] was tested, and the IC50 was 38.7 µM.
Work on `Clc1ccccc1/C=N/Nc1cnc2ccccc2n1` [(E)-2-(2-(2-chlorobenzylidene)hydrazinyl)quinoxaline (4)] yielded an IC50 of 37.6 µM.
`Fc1ccccc1/C=N/Nc1cnc2ccccc2n1` [(E)-2-(2-(2-fluorobenzylidene)hydrazinyl)quinoxaline (1)] showed an IC50 of 33.6 µM.
`Clc1cccc(/C=N/Nc2cnc3ccccc3n2)c1` [(E)-2-(2-(3-chlorobenzylidene)hydrazinyl)quinoxaline (5)] showed an IC50 of 93.5 µM.
With `Fc1cccc(/C=N/Nc2cnc3ccccc3n2)c1` [(E)-2-(2-(3-fluorobenzylidene)hydrazinyl)quinoxaline (2)] the IC50 was 66.1 µM.
`Fc1ccc(/C=N/Nc2cnc3ccccc3n2)cc1` [(E)-2-(2-(4-fluorobenzylidene)hydrazinyl)quinoxaline (3)] gave an IC50 of 58.1 µM.
`C(=N\Nc1cnc2ccccc2n1)/c1c[nH]c2ccccc12` [(E)-2-(2-((1H-indol-3-yl)methylene)hydrazinyl)quinoxaline (27)] gave an IC50 of 84.3 µM.
`Oc1ccc(O)c(/C=N/Nc2cnc3ccccc3n2)c1` [(E)-2-((2-(quinoxalin-2-yl)hydrazono)methyl)benzene-1,4-diol (16)] gave an IC50 of 35.5 µM.
With `Oc1ccccc1/C=N/Nc1cnc2ccccc2n1` [(E)-2-((2-(quinoxalin-2-yl)hydrazono)methyl)phenol (28)] the IC50 was 37.2 µM.
For `COc1ccc(/C=N/Nc2cnc3ccccc3n2)cc1O` [(E)-2-methoxy-5-((2-(quinoxalin-2-yl)hydrazono)methyl)phenol (21)], the IC50 was 46.9 µM.
With `Oc1cccc(/C=N/Nc2cnc3ccccc3n2)c1O` [(E)-3-((2-(quinoxalin-2-yl)hydrazono)methyl)benzene-1,2-diol (14)] the IC50 was 15.4 µM.
With `Oc1cccc(/C=N/Nc2cnc3ccccc3n2)c1` [(E)-3-((2-(quinoxalin-2-yl)hydrazono)methyl)phenol (12)] the IC50 was 63.2 µM.
In the case of `Oc1ccc(/C=N/Nc2cnc3ccccc3n2)cc1O` [(E)-4-((2-(quinoxalin-2-yl)hydrazono)methyl)benzene-1,2-diol (17)], the IC50 is reported as 8.6 µM.
Molecule `Oc1ccc(/C=N/Nc2cnc3ccccc3n2)c(O)c1` [(E)-4-((2-(quinoxalin-2-yl)hydrazono)methyl)benzene-1,3-diol (15)] has an IC50 of 33.4 µM.
`Oc1ccc(/C=N/Nc2cnc3ccccc3n2)cc1` [(E)-4-((2-(quinoxalin-2-yl)hydrazono)methyl)phenol (13)] showed an IC50 of 48.6 µM.
In the case of `COc1ccc(O)c(/C=N/Nc2cnc3ccccc3n2)c1` [(E)-4-methoxy-2-((2-(quinoxalin-2-yl)hydrazono)methyl)phenol (24)], the IC50 is reported as 36.3 µM.
`Oc1cc(O)c(/C=N/Nc2cnc3ccccc3n2)cc1O` [(E)-5-((2-(quinoxalin-2-yl)hydrazono)methyl)benzene-1,2,4-triol (18)] gave an IC50 of 3.2 µM.
In the case of `Oc1cc(O)c(/C=N/Nc2cnc3ccccc3n2)c(O)c1` [(E)-5-((2-(quinoxalin-2-yl)hydrazono)methyl)benzene-2,4,6-triol (19)], the IC50 is reported as 9.1 µM.
Molecule `COc1ccc(/C=N/Nc2cnc3ccccc3n2)c(O)c1` [(E)-5-methoxy-2-((2-(quinoxalin-2-yl)hydrazono)methyl)phenol (20)] has an IC50 of 34.4 µM.
